Legend:
Format in all cases: cell-based
ACHN = assay: in vitro cytotoxicity evaluation, Renal Cancer; details: Homo sapiens, 48 h, two days, sulforhodamine B
Protocol: (§1) These assays were carried out at the Developmental Therapeutics Program, Division of Cancer Treatment, National Cancer Institute (Bethesda, Md., USA). The method consists of incubating varying concentrations of the drug with an inoculum of cells for two days.
(§2) It should be noted that the first two parameters (GI50 and TGI) relate to antiproliferation effects while the third one (LC50) indicates true cytotoxicity.

UO-31 = assay: in vitro cytotoxicity evaluation, Renal Cancer; details: Homo sapiens, 48 h, UO-31, two days, sulforhodamine B
Protocol: as §1, §2

RXF-393 = assay: in vitro cytotoxicity evaluation, Renal Cancer; details: Homo sapiens, 48 h, RXF-393, two days, sulforhodamine B
Protocol: as §1, §2

HT 29 = assay: in vitro cytotoxicity evaluation, Colon Cancer; details: Homo sapiens, 48 h, HT 29, two days, sulforhodamine B
Protocol: as §1, §2

Colo 205 = assay: in vitro cytotoxicity evaluation, Colon Cancer; details: Homo sapiens, 48 h, Colo 205, two days, sulforhodamine B
Protocol: as §1, §2

SW-620 = assay: in vitro cytotoxicity evaluation, Colon Cancer; details: Homo sapiens, 48 h, SW-620, two days, sulforhodamine B
Protocol: as §1, §2

MK20L2 = assay: in vitro cytotoxicity evaluation, Colon Cancer; details: Homo sapiens, 48 h, MK20L2, two days, sulforhodamine B
Protocol: as §1, §2

HCT-15 = assay: in vitro cytotoxicity evaluation, Colon Cancer; details: Homo sapiens, 48 h, HCT-15, two days, sulforhodamine B
Protocol: as §1, §2

KM 12 = assay: in vitro cytotoxicity evaluation, Colon Cancer; details: Homo sapiens, KM12, 48 h, KM 12, two days, sulforhodamine B
Protocol: as §1, §2

DLD-1 = assay: in vitro cytotoxicity evaluation, Colon Cancer; details: Homo sapiens, 48 h, DLD-1, two days, sulforhodamine B
Protocol: as §1, §2

HCT-116 = assay: in vitro cytotoxicity evaluation, Colon Cancer; details: Homo sapiens, 48 h, HCT-116, two days, sulforhodamine B
Protocol: as §1, §2

K-562 = assay: in vitro cytotoxicity evaluation, Leukemia; details: Homo sapiens, K562, 48 h, K-562, two days, sulforhodamine B
Protocol: as §1, §2

CCRF-CEM = assay: in vitro cytotoxicity evaluation, Leukemia; details: Homo sapiens, 48 h, two days, sulforhodamine B
Protocol: as §1, §2

RPMI-8226 = assay: in vitro cytotoxicity evaluation, Leukemia; details: Homo sapiens, 48 h, RPMI-8226, two days, sulforhodamine B
Protocol: as §1, §2

MOLT-4 = assay: in vitro cytotoxicity evaluation, Leukemia; details: Homo sapiens, 48 h, MOLT-4, two days, sulforhodamine B
Protocol: as §1, §2

[1] = read-out: LOG10 G150 (GI50) (converted)
[2] = read-out: Log10 LC50 (converted)
[3] = read-out: Log10 TGI (converted)

COc1c2c(c(OC)c3c(=O)c4ccccc4sc13)CS(=O)(=O)[C@@H]2O[C@H]1C[C@H](N)[C@H](O)[C@H](C)O1 [BCH-255, (1S ) 1-daunosamine-4-11-dimethoxy-5-oxo-5-H-1,3-dihydrothioxantheno [2,3-c] thiophene-2,2-dioxide]
GI50 (ACHN; [1]): 17.4 µM
CC50 (ACHN; [2]): 61.7 µM
IC (total growth inhibition (TGI)) (ACHN; [3]): 32.4 µM
GI50 (UO-31; [1]): 19.5 µM
CC50 (UO-31; [2]): 91.2 µM
IC (total growth inhibition (TGI)) (UO-31; [3]): 42.7 µM
GI50 (RXF-393; [1]): 17 µM
CC50 (RXF-393; [2]): 72.4 µM
IC (total growth inhibition (TGI)) (RXF-393; [3]): 35.5 µM
GI50 (HT 29; [1]): 17.8 µM
CC50 (HT 29; [2]): 61.7 µM
IC (total growth inhibition (TGI)) (HT 29; [3]): 33.1 µM
GI50 (Colo 205; [1]): 17.8 µM
CC50 (Colo 205; [2]): 77.6 µM
IC (total growth inhibition (TGI)) (Colo 205; [3]): 37.2 µM
GI50 (SW-620; [1]): 20.4 µM
CC50 (SW-620; [2]): 67.6 µM
IC (total growth inhibition (TGI)) (SW-620; [3]): 37.2 µM
GI50 (MK20L2; [1]): 17 µM
CC50 (MK20L2; [2]): 57.5 µM
IC (total growth inhibition (TGI)) (MK20L2; [3]): 30.9 µM
GI50 (HCT-15; [1]): 19.1 µM
CC50 (HCT-15; [2]): 95.5 µM
IC (total growth inhibition (TGI)) (HCT-15; [3]): 42.7 µM
GI50 (KM 12; [1]): 18.2 µM
CC50 (KM 12; [2]): 87.1 µM
IC (total growth inhibition (TGI)) (KM 12; [3]): 39.8 µM
GI50 (DLD-1; [1]): 24.5 µM
LC50 (DLD-1; [2]): > 100 µM
IC (total growth inhibition (TGI)) (DLD-1; [3]): 67.6 µM
GI50 (HCT-116; [1]): 20.4 µM
CC50 (HCT-116; [2]): 75.9 µM
IC (total growth inhibition (TGI)) (HCT-116; [3]): 39.8 µM
GI50 (K-562; [1]): 16.2 µM
CC50 (K-562; [2]): 83.2 µM
IC (total growth inhibition (TGI)) (K-562; [3]): 36.3 µM
GI50 (CCRF-CEM; [1]): 17.8 µM
CC50 (CCRF-CEM; [2]): 97.7 µM
IC (total growth inhibition (TGI)) (CCRF-CEM; [3]): 41.7 µM
GI50 (RPMI-8226; [1]): 16.2 µM
CC50 (RPMI-8226; [2]): > 100 µM
IC (total growth inhibition (TGI)) (RPMI-8226; [3]): 40.7 µM
GI50 (MOLT-4; [1]): 19.1 µM
CC50 (MOLT-4; [2]): 87.1 µM
IC (total growth inhibition (TGI)) (MOLT-4; [3]): 40.7 µM
